ChEMBL document CHEMBL2157908, “Formylated polyamines as peptidomimetics” (Bioorg Med Chem Lett, 2012)
The source made the active and inactive calls. The rule behind the calls is not given here.

How the values were obtained:
[1] = Half life in human serum; assay type: ADME, cell-free
Mu-type opioid receptor [2] = target: T1, Mu-type opioid receptor (Homo sapiens, UniProt P35372); test: Displacement of [3H]DAMGO from human recombinant mu-opioid receptor expressed in CHO cells after 60 mins by liquid scintillation assay; assay type: cell-based
T1 sequence (P35372 whole entry): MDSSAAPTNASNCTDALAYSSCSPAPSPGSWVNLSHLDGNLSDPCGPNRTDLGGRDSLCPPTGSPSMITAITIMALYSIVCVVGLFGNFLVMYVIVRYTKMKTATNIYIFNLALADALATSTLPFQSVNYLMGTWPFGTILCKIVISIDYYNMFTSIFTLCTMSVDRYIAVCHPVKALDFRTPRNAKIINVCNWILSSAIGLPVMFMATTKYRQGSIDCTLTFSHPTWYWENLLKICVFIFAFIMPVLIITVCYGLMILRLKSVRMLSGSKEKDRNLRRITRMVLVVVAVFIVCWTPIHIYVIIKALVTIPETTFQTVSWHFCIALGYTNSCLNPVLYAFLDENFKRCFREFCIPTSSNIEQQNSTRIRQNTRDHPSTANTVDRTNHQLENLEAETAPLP

Mu-type opioid receptor [3] = target: T1, Mu-type opioid receptor; test: Agonist activity at human recombinant mu-opioid receptor expressed in CHO cells after 60 mins by [35S]GTPgammaS binding assay; assay type: functional, cell-based

SMILES: CC(C)C[C@H](CN(C=O)[C@H](Cc1ccccc1)CN(C=O)CCN(C=O)CCN(C=O)[C@@H](CN)Cc1ccc(O)cc1)NS(C)(=O)=O
- half-life [1]: 41 h
- IC50 (Mu-type opioid receptor [2]): 3200 nM
- Ki (Mu-type opioid receptor [2]): 400 nM
- Activity (Mu-type opioid receptor [3]): inactive
